# Measurements as given in patent US20100041089A1, “IMPROVED METHOD FOR DETECTING CHEMICAL […]” (priority 2006, published 2010).
# System: yeast genes (expressed mRNA)
# Experiment: DNA chip measurement of expressed mRNA of yeast genes after culture with a toxic chemical substance
# Assay type: cell-based, Saccharomyces cerevisiae S288C
# Procedure, shortened: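 Yeast S288C, YPD 25° C; toxicant at log phase, 2 h, sublethal growth-inhibiting conc.; no-chemical control. Hot SDS/acetate RNA extraction, oligo-dT mRNA, Cy3/Cy5-dUTP RT. Whole-genome chip, 65° C >12 h. Readout: treated/control intensity ratio, ≥2 significant.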
compound,measurement,setting,value
"CN(C)C(=S)SSC(=S)N(C)C [(10), Tetramethylthiuram disulfide]",The level of expressed mRNA in the presence of chemical substance/The level of expressed mRNA in the absence of chemical substance,"yeast gene YAL053W, cultured two hours with substance",0.9
same,The level of expressed mRNA in the presence of chemical substance/The level of expressed mRNA in the absence of chemical substance,"yeast gene YAR028W, cultured two hours with substance",0.9
same,The level of expressed mRNA in the presence of chemical substance/The level of expressed mRNA in the absence of chemical substance,yeast gene YBL043W,14.7
same,The level of expressed mRNA in the presence of chemical substance/The level of expressed mRNA in the absence of chemical substance,"yeast gene YBL048W, cultured two hours with substance",4.4
same,The level of expressed mRNA in the presence of chemical substance/The level of expressed mRNA in the absence of chemical substance,yeast gene YBL078C,15.2
same,The level of expressed mRNA in the presence of chemical substance/The level of expressed mRNA in the absence of chemical substance,"yeast gene YBL107C, cultured two hours with substance",3.1
same,The level of expressed mRNA in the presence of chemical substance/The level of expressed mRNA in the absence of chemical substance,yeast gene YBR008C (detoxification protein gene),21.1
same,The level of expressed mRNA in the presence of chemical substance/The level of expressed mRNA in the absence of chemical substance,yeast gene YBR008C (transport facilitation protein gene),21.1
same,The level of expressed mRNA in the presence of chemical substance/The level of expressed mRNA in the absence of chemical substance,yeast gene YBR046C,6.2
same,The level of expressed mRNA in the presence of chemical substance/The level of expressed mRNA in the absence of chemical substance,yeast gene YBR072W (stress protein genes),43.4
same,The level of expressed mRNA in the presence of chemical substance/The level of expressed mRNA in the absence of chemical substance,"yeast gene YBR099C, cultured two hours with substance",12.9
same,The level of expressed mRNA in the presence of chemical substance/The level of expressed mRNA in the absence of chemical substance,yeast gene YCL027W,16.3
same,The level of expressed mRNA in the presence of chemical substance/The level of expressed mRNA in the absence of chemical substance,yeast gene YCL069W (detoxification protein gene),6.9
same,The level of expressed mRNA in the presence of chemical substance/The level of expressed mRNA in the absence of chemical substance,yeast gene YCL069W (transport facilitation protein gene),6.9
same,The level of expressed mRNA in the presence of chemical substance/The level of expressed mRNA in the absence of chemical substance,"yeast gene YCR102C, cultured two hours with substance",61.5
same,The level of expressed mRNA in the presence of chemical substance/The level of expressed mRNA in the absence of chemical substance,"yeast gene YDL021W, cultured for two hours with substance",7.4
same,The level of expressed mRNA in the presence of chemical substance/The level of expressed mRNA in the absence of chemical substance,"yeast gene YDL059C, DNA repair protein genes, cultured two hours with substance",7.8
same,The level of expressed mRNA in the presence of chemical substance/The level of expressed mRNA in the absence of chemical substance,"yeast gene YDL072C, cultured two hours with substance",1.5
same,The level of expressed mRNA in the presence of chemical substance/The level of expressed mRNA in the absence of chemical substance,"yeast gene YDL204W, cultured two hours with substance",2.0
same,The level of expressed mRNA in the presence of chemical substance/The level of expressed mRNA in the absence of chemical substance,"yeast gene YDL218W, cultured two hours with substance",12.6
same,The level of expressed mRNA in the presence of chemical substance/The level of expressed mRNA in the absence of chemical substance,"yeast gene YDL222C, cultured two hours with substance",1.0
same,The level of expressed mRNA in the presence of chemical substance/The level of expressed mRNA in the absence of chemical substance,yeast gene YDL243C,29.6
same,The level of expressed mRNA in the presence of chemical substance/The level of expressed mRNA in the absence of chemical substance,"yeast gene YDL243C, cultured for two hours with substance",29.6
same,The level of expressed mRNA in the presence of chemical substance/The level of expressed mRNA in the absence of chemical substance,"yeast gene YDR031W, cultured two hours with substance",2.7
same,The level of expressed mRNA in the presence of chemical substance/The level of expressed mRNA in the absence of chemical substance,"yeast gene YDR056C, cultured two hours with substance",2.3
same,The level of expressed mRNA in the presence of chemical substance/The level of expressed mRNA in the absence of chemical substance,yeast gene YDR069C,4.5
same,The level of expressed mRNA in the presence of chemical substance/The level of expressed mRNA in the absence of chemical substance,"yeast gene YDR210W, cultured two hours with substance",1.0
same,The level of expressed mRNA in the presence of chemical substance/The level of expressed mRNA in the absence of chemical substance,yeast gene YDR258C (stress protein genes),13.3
same,The level of expressed mRNA in the presence of chemical substance/The level of expressed mRNA in the absence of chemical substance,"yeast gene YDR258C, mitochondria-located protein gene",13.3
same,The level of expressed mRNA in the presence of chemical substance/The level of expressed mRNA in the absence of chemical substance,"yeast gene YDR330W, cultured two hours with substance",2.6
same,The level of expressed mRNA in the presence of chemical substance/The level of expressed mRNA in the absence of chemical substance,yeast gene YDR353W,5.1
same,The level of expressed mRNA in the presence of chemical substance/The level of expressed mRNA in the absence of chemical substance,"yeast gene YDR391C, cultured two hours with substance",2.7
same,The level of expressed mRNA in the presence of chemical substance/The level of expressed mRNA in the absence of chemical substance,"yeast gene YDR411C, cultured two hours with substance",1.0
same,The level of expressed mRNA in the presence of chemical substance/The level of expressed mRNA in the absence of chemical substance,"yeast gene YDR486C, cultured two hours with substance",5.8
same,The level of expressed mRNA in the presence of chemical substance/The level of expressed mRNA in the absence of chemical substance,"yeast gene YDR511W, cultured two hours with substance",2.2
same,The level of expressed mRNA in the presence of chemical substance/The level of expressed mRNA in the absence of chemical substance,"yeast gene YDR533C, cultured two hours with substance",12.7
same,The level of expressed mRNA in the presence of chemical substance/The level of expressed mRNA in the absence of chemical substance,"yeast gene YDR545W, cultured two hours with substance",0.7
same,The level of expressed mRNA in the presence of chemical substance/The level of expressed mRNA in the absence of chemical substance,"yeast gene YEL001C, cultured two hours with substance",1.2
same,The level of expressed mRNA in the presence of chemical substance/The level of expressed mRNA in the absence of chemical substance,"yeast gene YER004W, cultured two hours with substance",2.9
same,The level of expressed mRNA in the presence of chemical substance/The level of expressed mRNA in the absence of chemical substance,"yeast gene YER035W, cultured two hours with substance",1.4
same,The level of expressed mRNA in the presence of chemical substance/The level of expressed mRNA in the absence of chemical substance,"yeast gene YER038C, cultured two hours with substance",2.5
same,The level of expressed mRNA in the presence of chemical substance/The level of expressed mRNA in the absence of chemical substance,yeast gene YER069W,10.4
same,The level of expressed mRNA in the presence of chemical substance/The level of expressed mRNA in the absence of chemical substance,"yeast gene YER069W, mitochondria-located protein gene",10.4
same,The level of expressed mRNA in the presence of chemical substance/The level of expressed mRNA in the absence of chemical substance,"yeast gene YER079W, cultured two hours with substance",3.4
same,The level of expressed mRNA in the presence of chemical substance/The level of expressed mRNA in the absence of chemical substance,"yeast gene YER106W, cultured two hours with substance",1.8
same,The level of expressed mRNA in the presence of chemical substance/The level of expressed mRNA in the absence of chemical substance,"yeast gene YER158C, cultured two hours with substance",1.6
same,The level of expressed mRNA in the presence of chemical substance/The level of expressed mRNA in the absence of chemical substance,"yeast gene YER163C, cultured two hours with substance",3.4
same,The level of expressed mRNA in the presence of chemical substance/The level of expressed mRNA in the absence of chemical substance,"yeast gene YER175C, cultured two hours with substance",11.5
same,The level of expressed mRNA in the presence of chemical substance/The level of expressed mRNA in the absence of chemical substance,"yeast gene YFL006W, cultured two hours with substance",1.7
